The log P is the decadic logarithm of the partition coefficient of the neutral form, usually between octanol and water.

The record followed here is patent US20220387268A1, “OIL-IN-WATER MACROEMULSION” (SYMRISE AG, priority 2019, published 2022).

One data set can be described thus: water solubility. The class given is physicochemical. Particulars: room temperature.
The nature of data set [1]: log P value (octanol:water). In kind it is physicochemical. Particulars: water/n-octanol. From the text:
The partition coefficient (P) is the ratio of concentrations of a compound in a mixture of two immiscible solvents at equilibrium. This ratio is therefore a comparison of the solubility of the solute in these two liquids. In the chemical and pharmaceutical sciences, both phases usually are solvents. Most commonly, one of the solvents is water, while the second is hydrophobic such as 1-octanol.
Log P=log 10(Partition Coefficient)
Partition Coefficient,P=[organic]/[aqueous]

For `CCCCCC/C(C=O)=C\c1ccccc1` [HEXYLZIMTALDEHYD ALPHA], in “water solubility”, the Water solubility came out at 1.2 µg/mL. Moreover, in data set [1], the “log P” value is 4.82.

Turning to `CCCCCC1CCC(=O)O1` (stereo not shown) [ALDEHYD C18 SOG.], in the data set “water solubility”, the Water solubility was 2373.1 µg/mL.

Molecule `CC(C=O)Cc1ccc(C(C)C)cc1` (stereo not shown) registered a Water solubility in the data set “water solubility” of 17.8 µg/mL. The “log P” value in data set [1] turned out to be 3.91.

`CCC(C)(O)CCCC(C)C` (stereo not shown) [TETRAHYDROLINALOOL] returned a Water solubility in “water solubility” of 492.4 µg/mL. In data set [1], the “log P” value stood at 3.6.

Molecule `CCCCCC1C(=O)CCC1CC(=O)OC` (stereo not shown) [HEDION] showed a Water solubility in “water solubility” of 401.5 µg/mL.

On to `CCCC(=O)OC(C)(C)Cc1ccccc1` [DIMETHYLBENZYLCARBINYLBUTYRAT], for which the “log P” value in data set [1] came to 4.43.

In turn, `O=Cc1ccc2c(c1)OCO2` [HELIOTROPIN/PIPERONAL] came in with a Water solubility in the data set “water solubility” of 2260.1 µg/mL. In addition, the “log P” value in data set [1] is recorded as 1.77.

As to `CC(=O)OC1CCCCC1C(C)(C)C` (stereo not shown) [AGRUMEX LC], the Water solubility in the data set “water solubility” was determined as 17.6 µg/mL.

In “water solubility”, `O=C1CCCCCCCCCCCC(=O)OCCO1` [ETHYLENBRASSYLAT] displayed a Water solubility of 20.9 µg/mL. Further, the “log P” value in data set [1] came to 4.71.

In the case of `C=CC(C)CCCC(C)(C)O` (stereo not shown) [DIHYDROMYRCENOL], the Water solubility in the data set “water solubility” stood at 671.2 µg/mL. Besides, the “log P” value in data set [1] is listed as 3.47.
